{
  "source": "patent US20170246206A1",
  "about": "“Calcium Formate for Use as a Dietary Supplement” (Wisconsin Alumni Research Foundation, priority 1999, published 2017)",
  "remark": "listed apart in the source",
  "key": {"[1]": {"source_text": "Twenty 15-day-old weanling rats from Holzmann Company were placed on a an adequate synthetic diet called “Diet 11” (Suda, T., et al., J. Nutr. 100:1049-1052, 1970). This diet is supplemented with vitamins A, D, E and K as described in that paper. Therefore, these are vitamin D-sufficient animals.\nThe animals were then placed on a basal diet that contains 0.02% calcium, i.e. an extremely low calcium diet. These animals served as controls. Another group were placed on the same diet containing calcium formate, providing calcium at 0.25% of the diet. Another group was supplied calcium formate at 0.47% calcium in the diet, and another group was provided 0.47% calcium in the form of calcium carbonate. Growth of the animals reflects the ability of the animals to utilize calcium. […] 57:449-468 (1955)."}, "[2]": {"conditions": "1% Ca formate in diet, 1 week on diet"}, "[3]": {"conditions": "1% Ca formate in diet, 2 weeks on diet"}, "[4]": {"conditions": "2% Ca formate in diet, 1 week on diet"}, "[5]": {"conditions": "2% Ca formate in diet, 2 weeks on diet"}, "[6]": {"conditions": "3% Ca formate in diet, 1 week on diet"}, "[7]": {"conditions": "3% Ca formate in diet, 2 weeks on diet"}},
  "note": "Where two headings read alike, the source gives them in different places.",
  "data": [
    {"smiles": "O=C([O-])[O-].[Ca+2]", "note": "[Calcium Carbonate, calcium carbonate, reference compound]", "values": [
      {"measurement": "Average Body Weight ± S.E.M for 5 Rats", "setting": "[1]; 0.47% Ca in diet, day 7", "value": "48.6 ± 4.9", "unit": "Grams"},
      {"measurement": "Average Body Weight ± S.E.M for 5 Rats", "setting": "[1]; 0.47% Ca in diet, day 14", "value": "80.4 ± 10.4", "unit": "Grams"},
      {"measurement": "Average Body Weight ± S.E.M for 5 Rats", "setting": "[1]; 0.47% Ca in diet, day 21", "value": "126.2 ± 11", "unit": "Grams"}
    ]},
    {"smiles": "O=C[O-].O=C[O-].[Ca+2]", "note": "[Calcium Formate, calcium formate]", "values": [
      {"measurement": "Serum (mean ± SEM)", "setting": "[2]", "value": "3.25 ± .31 mg %"},
      {"measurement": "Weight", "setting": "[2]", "value": "229 ± 5.5"},
      {"measurement": "Serum Ca (mean ± SEM)", "setting": "[3]", "value": "14.0 ± .51 mg %"},
      {"measurement": "Weight", "setting": "[3]", "value": "211 ± 3.8"},
      {"measurement": "Serum (mean ± SEM)", "setting": "[4]", "value": "2.50 ± .32 mg %"},
      {"measurement": "Weight", "setting": "[4]", "value": "211 ± 6.3"},
      {"measurement": "Serum (mean ± SEM)", "setting": "[5]", "value": "2.7 ± .24 mg %"},
      {"measurement": "Serum Ca (mean ± SEM)", "setting": "[5]", "value": "12.8 ± .94 mg %"},
      {"measurement": "Weight", "setting": "[5]", "value": "198 ± 5.2"},
      {"measurement": "Difference in serum phosphorus between dose levels", "setting": "2% vs 3% calcium formate in diet", "value": "little difference in serum phosphorus"},
      {"measurement": "Serum (mean ± SEM)", "setting": "[6]", "value": "2.5 ± .20 mg %"},
      {"measurement": "Weight", "setting": "[6]", "value": "194 ± 6.5"},
      {"measurement": "Serum (mean ± SEM)", "setting": "[7]", "value": "2.9 ± 0.8", "unit": "mg %"},
      {"measurement": "Serum Ca (mean ± SEM)", "setting": "[7]", "value": "12.9 ± 1.3", "unit": "mg %"},
      {"measurement": "Weight", "setting": "[7]", "value": "150 ± 8.0"},
      {"measurement": "Serum phosphorus compared with control rats", "setting": "all rats supplied with calcium formate (1-3% of diet)", "value": "less serum phosphorus than control rats"},
      {"measurement": "Average Body Weight ± S.E.M for 5 Rats", "setting": "[1]; 0.25% Ca in diet, day 7", "value": "54.3 ± 4.0", "unit": "Grams"},
      {"measurement": "Average Body Weight ± S.E.M for 5 Rats", "setting": "[1]; 0.25% Ca in diet, day 14", "value": "84.6 ± 5.5", "unit": "Grams"},
      {"measurement": "Average Body Weight ± S.E.M for 5 Rats", "setting": "[1]; 0.25% Ca in diet, day 21", "value": "131.0 ± 5.7", "unit": "Grams"},
      {"measurement": "Growth in comparison to other treatment groups", "setting": "[1]; 0.25% calcium as the formate", "value": "slightly better growth"},
      {"measurement": "Average Body Weight ± S.E.M for 5 Rats", "setting": "[1]; 0.47% Ca in diet, day 7", "value": "51.0 ± 10.6", "unit": "Grams"},
      {"measurement": "Average Body Weight ± S.E.M for 5 Rats", "setting": "[1]; 0.47% Ca in diet, day 14", "value": "78.0 ± 19^ Grams"},
      {"measurement": "Average Body Weight ± S.E.M for 5 Rats", "setting": "[1]; 0.47% Ca in diet, day 21", "value": "127 ± 11", "unit": "Grams"},
      {"measurement": "Ability to supply calcium to experimental rats", "setting": "[1]; compared with calcium carbonate", "value": "at least equal to calcium carbonate"}
    ]}
  ]
}
